The values that follow come from US12358954B2, “Capsid-modified rAAV vector compositions and methods therefor” (priority 2012, dated 2025).

Entries after “also recorded” stand apart in the source; their conditions may differ.

The test system of assay [1] is HeLa cells. Description: AAV-EGFP transduction of HeLa cells in the presence of NF-κB modulators. It is filed as cell-based, human. The settings on record: HeLa, scAAV-EGFP. As to the method: (§1) Recombinant AAV Vector Transduction Assays in Vitro. Optimal concentration of NF-κB-modulating compounds was determined by a cell viability assay with tenfold-dilutions from the IC50 or were used as described previously (Wu and Miyamoto, 2008; Kumar et al., 2008). VP16 or Bay11 (10 or 5 μM, final concentration), and PDTC (50 or 25 μM final concentration) were used either alone or in activator/inhibitor combinations. For transduction experiments, approximately 1×10^5 HeLa cells were either pre-treated with these compounds 24 hrs prior to vector infection. Cells were transduced with 500 or 2,000 vector genomes (vgs) per cell of recombinant WT-AAV or TM-AAV vectors encoding the EGFP transgene as described previously (Markusic et al., 2010). After 7 days of culture, primary human dendritic cells were transduced with AAV vectors at 2000 vgs/cell and incubated for 48 hrs. Transgene expression was assessed as total area of green fluorescence (pixel^2) per visual field (mean±SD), or by flow cytometry. Analysis of variance (ANOVA) was used to compare between test results and the control and they were determined to be statistically significant.

The next assay concerns K562 cells. In words: AAV6 transduction of K562 cells after enzyme / inhibitor treatment. It is filed as cell-based, human. From the text:
More recently, Denard et al. reported that galectin-3-binding protein in human sera agglutinates AAV6 vectors, which results in decreased transduction efficiency of these vectors. […] The identity of the putative receptor for AAV6 vectors in human CD34^+ cells remains elusive, and additional studies are warranted. […] The implication is that AAV6 uses a protein rather than a lipid on K562 cells for binding and entry into these cells. In addition, because AAV6 is known to have evolved from recombination between AAV1 and AAV2, and because AAV2 uses heparan sulfateproteoglycan (HSPG) as the primary cellular receptor, the level of HSPG expression on K562 cells surface was examined by FACS. […] The effect of inhibitors of O-linked and N-linked glycosylation was also evaluated on the transduction efficiency of AAV6 vectors in K562 cells.

The next assay relates to T47D+hHGFR cells. In words: AAV vector transduction of T47D+hHGFR cells. It counts as cell-based, human. The source says: (§2) Cell Lines and Cultures. Human cervical cancer (HeLa) and hepatocellular carcinoma (Huh7) cell lines were purchased from American Type Culture Collection (Manassas, Va., USA), and maintained in complete DMEM medium (Mediatech, Inc., Manassas, Va., USA) supplemented with 10% heat-inactivated fetal bovine serum (FBS, Sigma-Aldrich Co.), 1% penicillin and streptomycin (P/S, Lonza, Inc.). A newly established human hepatoblastoma (Hep293TT) cell line (Chen et al., 2009) was maintained in complete RPMI medium 1640 (Invitrogen, Inc.) supplemented with 15% heat-inactivated FBS (Sigma-Aldrich Co.), 1% penicillin and streptomycin (P/S, Lonza, Inc.). Cells were grown as adherent cultures in a humidified atmosphere at 37° C. in 5% CO2 and were sub-cultured after treatment with trypsin-versene mixture (Lonza, Inc.) for 2-5 min at room temperature, washed and re-suspended in complete medium. […]
(§3) Human HGFR is required for AAV3 infectivity. […] Equivalent numbers of T47D and T47D+hHGFR cells were transduced with various multiplicities-of-infection (MOI) of self-complementary (sc) AAV3-CBAp-EGFP vectors under identical conditions and transgene expression was determined 72 hr post-transduction.

The test system of a further assay is Hep293TT cells. In words: AAV3 vector transduction assay in Hep293TT cells. It counts as cell-based, human. As to the method: (§4) AAV Vector Transduction Assays. Huh7 or HeLa cells were seeded in 96-well plates at a concentration of 5,000 cells per well in complete DMEM medium. AAV infections were performed in serum- and antibiotic-free DMEM medium. Hep293TT cells were seeded in 96-well plates at a concentration of 10,000 cells per well in complete RPMI medium. The infections were performed in serum- and antibiotic-free RPMI medium. The expression of EGFP was analyzed by direct fluorescence imaging 72 hrs' post-transduction.

Assay [2] has as its system HeLa cells. In words: Recombinant AAV2 vector transduction assay in vitro (EGFP imaging). It is filed as cell-based, human. As to the method:
Recombinant AAV2 Vector Transduction Assays in Vitro. Approximately 1×10^5 HeLa cells were used for transductions with recombinant AAV2 vectors. The transduction efficiency was measured 48-hr post-transduction by EGFP imaging using fluorescence microscopy. Images from three to five visual fields were analyzed quantitatively by ImageJ analysis software (NIH, Bethesda, Md., USA). Transgene expression was assessed as total area of green fluorescence (pixel^2) per visual field (mean±SD). Analysis of variance (ANOVA) was used to compare between test results and the control and they were determined to be statistically significant.
The transduction efficiency of each of the tyrosine-mutant vectors was analyzed and compared with the WT scAAV2-EGFP vector in HeLa cells in vitro under identical conditions. […] Specifically, the transduction efficiency of Y444F, Y500F, Y730F vectors was ˜8- to 11-fold higher than the WT vector.
In a second study, HeLa cells, either mock-treated or treated with Tyr23, a specific inhibitor of EGFR-PTK, or MG132, a proteasome inhibitor, both known to increase the transduction efficiency of AAV vectors, were mock-infected or infected with the WT or Y730F scAAV2-EGFP vectors.

In assay [3] the test system is HeLa cells. Description: scAAV2 transduction of HeLa cells with MG132 or Tyr23 (positive control). It is filed as cell-based, human. Particulars: MG132 5 μM; Tyr23 200 μM. Here is the method: as §4
Proteasome Inhibitors Increase the Transduction Efficiency of AAV3 Vectors. […] To evaluate whether MG132 can also improve AAV3 trafficking in target cells, Huh7, a well-established human hepatocellular carcinoma cell line (Nakabayashi et al., 1982), and Hep293TT, a recently established human hepatoblastoma cell line (Chen et al., 2009), were either mock-treated or treated with increasing concentrations of MG132. […] Transgene expression was determined by fluorescence microscopy 72 hrs post-transduction.
Previous studies have also shown that inhibition of EGFR-PTK signaling by Tyrphostin 23 (Tyr23), a specific inhibitor of EGFR-PTK (May et al., 1998), modulates the Ub/proteasome pathway, which in turn, facilitates intracellular trafficking and transgene expression mediated by AAV2 vectors (Zhong et al., 2007). […] Transgene expression was determined 72 hr post-transduction.

The target in another assay is T1, HGFR kinase (Homo sapiens, UniProt P08581).
T1 construct: expressed in transfected cells; host or cells: T47D human breast cancer cells stably transfected with a hHGFR expression plasmid (T47D+hHGFR); parental T47D as control
In words: Western blot of HGFR phosphorylation and downstream signaling. It counts as cell-based. Particulars: T47D+hHGFR cells. In general terms: In western blotting, separated proteins are transferred to a membrane and probed.

A further assay relates to T47D cells. In words: AAV3 vector transduction of T47D cells. It is filed as cell-based, human. Particulars: 1 μM, 2 hr; 10,000 vg/cell.
From the text: as §2, §3

Assay [4] concerns non-canonical NF-κB pathway (p100, p52). Description: Western blot of NF-κB pathway components in HeLa cells. It counts as cell-based, human. Particulars: in the presence of VP16. From the text: Western Blot Analyses. Homogenized lysates of the cell pellets from ˜2×10^6 HeLa cells or DCs, mock or pre-treated with the optimal concentration of NF-κB activators or inhibitors were used for sample preparation. Whole cell proteins were isolated using the RIPA lysis buffer (Sigma-Aldrich Co.) and cytoplasmic and nuclear proteins were extracted using a commercial kit (NE-PER Extraction Reagent Kit, Pierce Biotech, Rockford, Ill., USA) as per the manufacturer's protocol in the presence of a protease inhibitor cocktail (Halt™ Protease Inhibitor Cocktail Kit, Pierce Biotech). The protein extracts were boiled for 5 min under reducing conditions [SDS-sample buffer containing 62.5 mM Tris-HCl (pH 6.8 at 25° C.), 2% wt./vol. SDS, 10% glycerol, 50 mM DTT, 0.01% wt./vol. bromo-phenol blue (Cell Signaling Technology, Inc.)] and stored at −86° C. until further analysis. Equal volumes of samples were run on 4-15% SDS-PAGE (Bio-Rad, Hercules, Calif., USA). […] The intensity of the protein bands was measured with Adobe Photoshop CS3 Software® and normalized to proteins levels from the housekeeping gene products used as loading controls.

Assay [5] deals with primary human dendritic cells. Description: AAV-EGFP transduction of primary human dendritic cells with NF-κB modulators (flow cytometry). It counts as cell-based. As to the method: as §1
Cells, Antibodies and Chemicals. […]
A general note: In flow cytometry, cells or beads pass a laser one at a time.

For assay [6], the system named is primary human dendritic cells. Description: FACS analyses of markers of maturation (CD83, CD86) of primary human dendritic cells. It is filed as cell-based. As to the method:
Cells, Antibodies and Chemicals. HeLa cells were obtained from the American Type Culture Collection (Rockville, Md., USA) and maintained as monolayer cultures in Iscove's-modified Dulbecco's medium (IMDM, Invitrogen, Inc., Carlsbad, Calif., USA) supplemented with 10% newborn calf serum (NCS) (Lonza, Inc., Basel, SWITZERLAND) and antibiotics. Leukapheresis-derived PBMCs were resuspended in serum-free AIM-V medium (Lonza, Inc.) and semi-adherent cell fractions were incubated in serum-free AIM-V medium supplemented with recombinant human IL-4 (500 U/mL) and GM-CSF (800 U/mL) (R&D Systems, MN, USA). Cells were treated with NF-κB modulators ([…]), and cytokines cocktail including 10 ng/mL TNF-α, 10 ng/mL IL-1, 10 ng/mL IL-6, […] (R&D Systems) for 20 hr. Cells were harvested, characterized to ensure they met the typical phenotype of mature DCs (CD83, RPE, murine IgG1, CD86, FITC, murine IgG1; Invitrogen, Inc.). All primary and secondary antibodies were purchased from Cell Signaling Technology, Inc. (Danvers, Mass., USA) or Santa Cruz Biotechnology, Inc (Santa Cruz, Calif., USA). NF-kB activators [Etoposide (VP16), Aphidicolin, Hydroxyurea (HU)] and NF-kB inhibitors [Bay11-7082 (Bay11), Pyrrolidine dithiocarbamate (PDTC)] were purchased from Sigma-Aldrich Co. (St. Louis, Mo., USA). These compounds were re-suspended in either DMSO (Sigma-Aldrich Co.) or in sterile, DNAase-, RNAase-free water (Invitrogen, Inc.) as per the manufacturer's instructions.

Setting [7] is: Mature DCs + AAV + Cytokines + modulator.

T1 sequence (P08581 25-1390): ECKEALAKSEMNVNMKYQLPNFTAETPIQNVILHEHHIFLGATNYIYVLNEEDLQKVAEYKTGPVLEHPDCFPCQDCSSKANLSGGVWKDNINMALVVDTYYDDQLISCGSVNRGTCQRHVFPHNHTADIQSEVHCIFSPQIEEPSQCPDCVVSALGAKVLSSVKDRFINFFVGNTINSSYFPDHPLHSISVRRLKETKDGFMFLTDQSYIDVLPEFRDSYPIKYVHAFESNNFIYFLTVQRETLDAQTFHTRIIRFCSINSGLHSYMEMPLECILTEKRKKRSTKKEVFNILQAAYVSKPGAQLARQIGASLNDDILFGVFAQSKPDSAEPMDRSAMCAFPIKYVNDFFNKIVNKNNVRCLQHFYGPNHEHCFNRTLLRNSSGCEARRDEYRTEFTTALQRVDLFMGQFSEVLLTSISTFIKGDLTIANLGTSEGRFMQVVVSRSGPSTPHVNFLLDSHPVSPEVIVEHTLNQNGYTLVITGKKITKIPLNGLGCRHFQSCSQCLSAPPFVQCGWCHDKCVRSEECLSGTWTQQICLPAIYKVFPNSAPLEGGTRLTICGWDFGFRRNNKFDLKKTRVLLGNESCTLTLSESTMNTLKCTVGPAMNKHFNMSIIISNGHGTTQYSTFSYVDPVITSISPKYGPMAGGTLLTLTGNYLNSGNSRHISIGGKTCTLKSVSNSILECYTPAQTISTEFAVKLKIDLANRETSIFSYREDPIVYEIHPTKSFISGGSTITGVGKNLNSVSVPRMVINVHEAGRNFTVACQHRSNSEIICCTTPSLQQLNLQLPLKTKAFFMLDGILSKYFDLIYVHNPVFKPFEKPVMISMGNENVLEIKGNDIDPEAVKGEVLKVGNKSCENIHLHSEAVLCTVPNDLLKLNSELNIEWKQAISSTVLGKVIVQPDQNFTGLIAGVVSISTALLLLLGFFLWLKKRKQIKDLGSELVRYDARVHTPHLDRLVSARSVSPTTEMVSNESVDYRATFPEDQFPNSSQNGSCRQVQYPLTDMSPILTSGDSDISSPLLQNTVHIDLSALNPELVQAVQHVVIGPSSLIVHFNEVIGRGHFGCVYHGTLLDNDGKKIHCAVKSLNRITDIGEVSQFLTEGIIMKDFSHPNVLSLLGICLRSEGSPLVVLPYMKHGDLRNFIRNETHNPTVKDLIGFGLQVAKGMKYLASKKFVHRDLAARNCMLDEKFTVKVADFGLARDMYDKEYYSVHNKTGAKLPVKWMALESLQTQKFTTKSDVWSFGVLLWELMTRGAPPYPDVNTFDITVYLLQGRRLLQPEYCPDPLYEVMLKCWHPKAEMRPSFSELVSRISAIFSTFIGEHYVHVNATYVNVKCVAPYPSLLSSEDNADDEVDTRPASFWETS
Procedure for HGFR kinase: Cells were harvested and disrupted in a radio-immunoprecipitation assay (RIPA) lysis buffer (50 mM Tris-HCl, pH 8.0, 150 mM NaCl, 0.1% SDS, 1% NP-40, 0.25% sodium deoxycholate and 1 mM EDTA with protease inhibitor cocktail, 1 mM NaF and 1 mM Na3VO4). Total protein concentration was measured using a Bradford reagent (Bio-Rad) and equal amounts (50 μg) of whole cell lysates were resolved by SDS-PAGE. After electrophoresis, samples were electro-transferred to a nitrocellulose membrane (Bio-Rad), probed with relevant primary antibodies at 4° C. overnight, incubated with horseradish peroxidase-conjugated secondary antibodies (Jackson ImmunoResearch, West Grove, Pa., USA), and detected with an enhanced chemi-luminescence substrate (Amersham). […]
To examine whether inhibition of the HGFR kinase led to alterations in the phosphorylation status of specific cellular proteins involved in the downstream signaling pathway total and phosphorylation levels of the HGFR protein in both T47D and T47D+hHGFR lysates were determined following a 2-hr drug-incubation period. Activation of signaling pathways downstream from HGFR kinase, ERK1/2 and Akt, were analyzed using phosphorylation-specific antibodies.

Turning to `S=C(S)N1CCCC1` [PDTC, Pyrrolidine dithiocarbamate], the “AAV vector-mediated EGFP expression, fold augmentation” value in the assay with HeLa cells [1] is recorded as “had no effect; also recorded: no noticeable effect”.

As to phospholipase A2, in the assay with K562 cells, the “effect on AAV6 vector-mediated transduction of K562 cells” value (“effect” for short) is on record as “no significant change”.

Consider heparin, for which, in the assay with K562 cells, the “effect” value is reported as “could not be inhibited”.

In the case of hHGF: human hepatocyte growth factor, the “AAV3 vector-mediated transduction in the presence of hHGF” value in the assay with T47D+hHGFR cells (5 μg/mL hHGF, 2,000 vgs/cell) was “completely blocked”.

For `N#CC(C#N)=Cc1ccc(O)c(O)c1` [Tyr23, Tyrphostin 23], the “amounts of internalized viral DNA in presence or absence of inhibitor” value with Hep293TT cells is “no significant difference”. Moreover, the “transduction efficiency of scAAV3 vectors after treatment” value with Hep293TT cells (2 hr treatment) is on record as “significant increase”. For the same compound, the “increase in transduction efficiency of WT scAAV2-EGFP by pretreatment” value with HeLa cells [2] is ~9 fold. Moreover, the “transduction efficiency of scAAV2 vectors after pretreatment” value in the assay on HeLa cells [3] was “significant increase”.

`CCOc1ccn(-c2ccc(F)cc2)c(=O)c1C(=O)Nc1ccc(Oc2ccnc(N)c2Cl)c(F)c1` [BMS-777607, N-(4-(2-amino-3-chloropyridin-4-yloxy)-3-fluorophenyl)-4-ethoxy-1-(4-fluorophenyl)-2-oxo-1,2-dihydropyridine-3-carboxamide]: the “expression of phosphorylated AKT and ERK1/2” value on HGFR kinase is “no effect”. The “phosphorylation of HGFR” value on HGFR kinase (2-hr incubation) was “completely blocked”. The AAV3 infectivity entry in the assay on T47D+hHGFR cells (1 μM, 2 hr, 10,000 vg/cell) is recorded as “significantly enhanced”; in the assay on T47D cells, “no effect”.

Turning to `COc1cc([C@@H]2c3cc4c(cc3[C@@H](O[C@@H]3O[C@@H]5CO[C@@H](C)O[C@H]5[C@H](O)[C@H]3O)[C@H]3COC(=O)[C@H]23)OCO4)cc(OC)c1O` [VP16, Etoposide], the “increase in cytosolic p100 and nuclear p52” value in [4] is recorded as 3- to 6 fold. Moreover, the “EGFP expression increase compared with scAAV vector-transduced DCs” value in assay [5] is listed as ~20 fold. Besides, in assay [6], the “maturation of DCs (CD83, CD86)” value was “not able to induce maturation”. The “Geometric means of levels of expression in cells expressing CD83” value is 16.48 in [6] (DCs without cytokines) and 19.92 in assay [6] (setting [7]). For the same compound, the results for the “Geometric means of levels of expression in cells expressing CD86” value in [6] (DCs without cytokines) and in assay [6] (setting [7]) were 13.70 and 21.92, respectively.

Take tunicamycin: in the assay with K562 cells, the “effect” value is given as “markedly reduced”.
